This is an account of results in patent US12594278B2, “Method for treatment of muscular dystrophy” (CHILDREN'S NATIONAL MEDICAL CENTER, priority 2019, dated 2026).

The test system of one experiment is FAP. The conditions noted are these: stated without data; cited from earlier work.
In a further experiment the test system is B6A/J FAPs. Nature of the experiment: Spontaneous adipogenesis of purified B6A/J FAPs treated with recombinant AnxA2 (Oil Red O). It counts as cell-based, mouse. Particulars: 100 nM AnxA2 from day 3; 24Mo B6A/J FAPs; vs AnxA2 untreated FAPs. The text has this: The contribution of AnxA2 to the adipogenic fate of the FAPs was next examined in dysferlin-deficient muscle. For this FAPs were isolated from 12Mo WT, B6A/J and A2-B6A/J muscle and their spontaneous adipogenesis in vitro was quantified. […] The spontaneous adipogenesis of B6A/J FAPs indicates these cells are committed to adipogenesis prior to extraction, which can be caused by the pro-adipogenic niche in dysferlinopathic muscle. The lack of spontaneous adipogenesis in A2-B6A/J FAPs can be caused by the lack of a pro-adipogenic niche or restricted adipogenic potential of the FAPs in the absence of AnxA2 (FIG. 8). As adipogenic replacement of muscle is enhanced with age, the niche (PDGFRα^−) and FAP (PDGFRα^+) cells from 24Mo B6A/J and A2-B6A/J muscles were isolated to allow for the niche cells to reach their maximal potential. These FAP and niche cells were then mixed in a 1:1 ratio (20,000 cells total; 10,000 FAPs) from the same or different genetic background and their spontaneous adipogenesis was quantified as the extent of oil red staining/20,000 FAPs. […] To directly test if it is the AnxA2 or another factor secreted by the niche cells that influences FAP adipogenesis, a purified population of B6A/J FAPs ([…]) were treated with 100 nM AnxA2 and their spontaneous adipogenesis was quantified as the extent of oil red staining/20,000 FAPs. […]

The next experiment deals with A2-B6A/J mice. Nature of the experiment: Notexin injury of A2-B6A/J TA muscle with or without recombinant AnxA2. The class given is in vivo, mouse. The conditions noted are these: 10 μg AnxA2 at injury site, 28 d after injury, vs notexin alone. Here is the method: To test if this was also true in vivo, the AnxA2-naïve A2-B6A/J mice were used for receiving notexin to injure their muscle with or without the addition of 10 μg purified AnxA2 at the site of injury. […] This provides direct evidence supporting that extracellular AnxA2 is not only necessary, but also sufficient for driving FAP-mediated in vivo adipogenic conversion of the regenerating dysferlinopathic muscles.
Microscopy and Image Analysis. Microscopy was performed using an Olympus BX61 VS120-S5 Virtual Slide Scanning System with UPlanSApo 40×/0.95 objective, Olympus XM10 monochrome camera or Allied vision Pike F-505C color camera, and Olympus VS-ASW FL 2.7 imaging software. […] Perilipin-1 quantification was performed by thresholding the image to exclude non-specific staining and then calculating the area of each lipid deposit encircled by perlipin-1 (excluding those in the epi- or perimysium) using MetaMorph software (Molecular Devices). The total area encircled by perilipin-1 was calculated for all lipid deposits across the muscle and expressed relative to the total cross-sectional area. PDGFRα and AnxA2 positive area was calculated using CellSens software (Olympus) by thresholding to remove non-specific staining and calculating the total positive area (again, excluding any epi- or perimysial staining) relative to the entire muscle cross-section. […]

As for `CC(CN1c2ccccc2Sc2ccccc21)N(C)C` (stereo not shown) [promethazine], the FAP adipogenesis entry with FAP is “inhibits FAP adipogenesis”.

Turning to “AnxA2: recombinant AnxA2 (RayBiotech, #230-30023), membrane repair protein Annexin A2”, the “increase in spontaneous adipogenic differentiation of dysferlinopathic FAPs (oil red staining/20,000 FAPs)” value with B6A/J FAPs is greater than 2 fold. Further, in the experiment with A2-B6A/J mice, the “accumulation of PDGFRα FAPs in TA after notexin injury” value is given as “increased accumulation” and the “perilipin-1 labeled adipogenic deposits in TA after notexin injury” value is “increased accumulation”.
